Data: patent publication US4027024A (priority 1972, dated 1977)

What was measured:
rats [1] = test: hot plate test on rats, analgesic effect (Tables 1 and 2); assay type: in vivo
Procedure: Examination of PROBON'S potentiating effect upon
azidomorphine and azidocodeine, carried out on rats, by
hot plate test, compared with Algopyrine. The compounds
were administered s.c. (subcutaneously).
Examination of the potentiating effect of a few
homopyrimidazole derivatives upon axidomorphine or
azidocodeine, carried out on rats, by Hot plate test, the
compounds were administered s.c.

rats [2] = test: algolytic test, analgesia evaluated by pain score scale (Table A); assay type: in vivo; settings: for Pain units: pretr. time 1 hour, alone
[3] = modified hot plate test, duration of effect; assay type: in vivo; settings: azidocodeine alone
rats [4] = settings: rat, in vivo; for analgesic effect of the component per se (in words): sc
rats [5] = settings: rat, in vivo

Cc1c(N(C)CS(=O)(=O)O)c(=O)n(-c2ccccc2)n1C [Algopyrin, 2,3-dimethyl-4-methylamino-1-phenyl-5-pyrazolon-N-methane-sulfonic acid, reference compound]
Analgesic effect, Hot plate test (rats [1]; 150 mg/kg s.c., alone): 33%
Analgesic effect, Hot plate test (rats [1]; 200 mg/kg s.c., alone): 49%
Analgesic effect, Hot plate test (rats [1]; AP 150 mg/kg s.c., AM --, AK dose left blank): 29%
analgesic potency relative to Probon (in words) (rats [1]; Hot plate test, rats, s.c.): equipotent with Probon
effect on analgesic effect of azidomorphine or azidocodeine (in words) (rats [1]; Hot plate test, rats, s.c.): does not increase the analgesic effect

COc1ccc2c3c1O[C@H]1[C@H](N=[N+]=[N-])CC[C@H]4[C@@H](C2)N(C)CC[C@@]341 [Azidocodeine]
Pain units (rats [2]; Azidocodeine 30 mg/kg p.o.): 87 Pain units
Pain units (rats [2]; Azidocodeine 45 mg/kg p.o.): 38 Pain units
Pain units (rats [2]; Azidocodeine 60 mg/kg p.o.): 30 Pain units
ED50 in the algolytic test (rats [2]; azidocodeine alone, from diagram plotted from Table A): 32 mg/kg
duration of the effect [3]: 2 to 2.5 h
Analgesic effect, Hot plate test (rats [1]; AK 0.250 mg/kg s.c., alone): 16%

CN1CC[C@]23c4c5ccc(O)c4O[C@H]2[C@H](N=[N+]=[N-])CC[C@H]3[C@H]1C5 [Azidomorphine]
analgesic effect of the component per se (in words) (rats [4]): ineffective
Analgesic effect, Hot plate test (rats [1]; AM 0.015 mg/kg s.c., alone): 22%

CCOC(=O)c1cnc2n(c1=O)C(C)CCC2 (stereo not shown) [MZ-108, 3-carbethoxy-4-oxo-6-methyl-6,7,8,9-tetrahydro-homopyrimidazole]
Analgesic effect, algolytic test (rats [4]): 31%
Analgesic effect, Hot plate test (rats [1]; 200 mg/kg s.c., alone): 18%

CCOC(=O)c1c[n+](C)c2n(c1=O)C(C)CCC2 (stereo not shown) [MZ-144, 1,6-dimethyl-3-carbethoxy-4-oxo-6,7,8,9-tetrahydro-homopyrimidazolium-methosulphate]
Pain units (rats [2]; MZ-144 300 mg/kg p.o.): 75 Pain units
Analgesic effect, algolytic test (rats [4]): 59%
analgesic effect of the component per se (in words) (rats [4]): ineffective
Analgesic effect, Hot plate test (rats [1]; 50 mg/kg s.c., alone): 38%
Prolongation of narcotic period (rats [5]): 571%

CCOC(=O)C1=CN(C)C2CCCC(C)N2C1=O (stereo not shown) [MZ-168, 1,6-dimethyl-3-carbethoxy-4-oxo-1,6,7,8,9,10-hexahydro-homopyrimidazole]
Analgesic effect, Hot plate test (rats [1]; 50 mg/kg s.c., alone): 23%

CCOC(=O)C1CN(C)C2CCCC(C)N2C1=O (stereo not shown) [MZ-170, 1,6-dimethyl-3-carbethoxy-4-oxo-1,2,3,6,7,8,9,10-octahydro-homopyrimidazole]
Analgesic effect, Hot plate test (rats [1]; 300 mg/kg s.c., alone): 31%

CC1CCCc2n1c(=O)c(C(=O)[O-])c[n+]2C (stereo not shown) [MZ-211, 1,6-dimethyl-4-oxo-6,7,8,9-tetrahydro-homopyrimidazole-3-carboxylic acid]
Analgesic effect, algolytic test (rats [4]): 15%
Analgesic effect, Hot plate test (rats [1]; 50 mg/kg s.c., alone): 38%

O=C(CCCN1CCC(O)(c2ccc(Cl)cc2)CC1)c1ccc(F)cc1 [haloperidol, reference compound]
Prolongation of narcotic period (rats [5]): 255%
